# Patent US20250011348A1, “Synthesis Process of X-IPM, Stable Crystal Form and Application Thereof” (ASCENTAWITS PHARMACEUTICALS, LTD., priority 2023, published 2025)
# Like-named read-outs stand apart in the source and are kept apart here.
# Method: On different days, samples were taken at the same time for analysis and detection of related substances, and their contents were recorded.
substance,measurement,setting,value
isophosphoramide nitrogen mustard [Br-IPM],Stability of the Br-IPM crystals on storage (in words),placed at 40° C.,unstable
same,Br-IPM content in the analysis of related substances,"stored at 2-8° C., day 0",93.23%
same,Br-IPM content in the analysis of related substances,"stored at 2-8° C., day 3",93.28%
same,Br-IPM content in the analysis of related substances,"stored at 2-8° C., day 4",95.06%
same,Br-IPM content in the analysis of related substances,"stored at 2-8° C., day 5",94.29%
same,Br-IPM content in the analysis of related substances,"stored at 2-8° C., day 6",94.56%
same,Br-IPM content in the analysis of related substances,"stored at 2-8° C., day 7",95.57%
same,Br-IPM content in the analysis of related substances,"stored at 2-8° C., day 10",95.17%
same,Br-IPM content in the analysis of related substances,"stored at 2-8° C., day 11",95.07%
same,Br-IPM content in the analysis of related substances,"stored at 2-8° C., day 12",95.07%
same,Br-IPM content in the analysis of related substances,"stored at 2-8° C., day 13",95.44%
same,Br-IPM content in the analysis of related substances,"stored at 2-8° C., day 14",95.25%
same,Br-IPM content in the analysis of related substances,"stored at 2-8° C., day 17",95.76%
same,Br-IPM content in the analysis of related substances,"stored at 2-8° C., day 21",95.19%
same,Br-IPM content in the analysis of related substances,"stored at 2-8° C., day 28",96.22%
same,Br-IPM content in the analysis of related substances,"stored at 2-8° C., day 35",95.09%
same,Time for which the Br-IPM crystals are relatively stable / can be stored,stored at 25° C. (room temperature),28 days
same,Br-IPM content in the analysis of related substances,"stored at 25° C., day 0",93.23%
same,Br-IPM content in the analysis of related substances,"stored at 25° C., day 3",94.17%
same,Br-IPM content in the analysis of related substances,"stored at 25° C., day 4",94.89%
same,Br-IPM content in the analysis of related substances,"stored at 25° C., day 5",94.53%
same,Br-IPM content in the analysis of related substances,"stored at 25° C., day 6",94.32%
same,Br-IPM content in the analysis of related substances,"stored at 25° C., day 7",93.86%
same,Br-IPM content in the analysis of related substances,"stored at 25° C., day 10",94.64%
same,Br-IPM content in the analysis of related substances,"stored at 25° C., day 11",95.25%
same,Br-IPM content in the analysis of related substances,"stored at 25° C., day 12",94.97%
same,Br-IPM content in the analysis of related substances,"stored at 25° C., day 13",95.28%
same,Br-IPM content in the analysis of related substances,"stored at 25° C., day 14",94.61%
same,Br-IPM content in the analysis of related substances,"stored at 25° C., day 17",94.75%
same,Br-IPM content in the analysis of related substances,"stored at 25° C., day 21",93.81%
same,Br-IPM content in the analysis of related substances,"stored at 25° C., day 28",94.01%
same,Br-IPM content in the analysis of related substances,"stored at 25° C., day 35",91.42%
same,Br-IPM content in the analysis of related substances,"stored at 40° C., day 0",93.23%
same,Br-IPM content in the analysis of related substances,"stored at 40° C., day 3",86.36%
same,Br-IPM content in the analysis of related substances,"stored at −5° C., day 0",93.23%
same,Br-IPM content in the analysis of related substances,"stored at −5° C., day 3",94.65%
same,Br-IPM content in the analysis of related substances,"stored at −5° C., day 4",95.12%
same,Br-IPM content in the analysis of related substances,"stored at −5° C., day 5",94.07%
same,Br-IPM content in the analysis of related substances,"stored at −5° C., day 6",95.48%
same,Br-IPM content in the analysis of related substances,"stored at −5° C., day 7",94.96%
same,Br-IPM content in the analysis of related substances,"stored at −5° C., day 10",95.03%
same,Br-IPM content in the analysis of related substances,"stored at −5° C., day 11",95.50%
same,Br-IPM content in the analysis of related substances,"stored at −5° C., day 12",95.04%
same,Br-IPM content in the analysis of related substances,"stored at −5° C., day 13",95.23%
same,Br-IPM content in the analysis of related substances,"stored at −5° C., day 14",95.28%
same,Br-IPM content in the analysis of related substances,"stored at −5° C., day 17",95.07%
same,Br-IPM content in the analysis of related substances,"stored at −5° C., day 21",95.30%
same,Br-IPM content in the analysis of related substances,"stored at −5° C., day 28",94.83%
same,Br-IPM content in the analysis of related substances,"stored at −5° C., day 35",94.64%
